# Test system: MV-4-11 cells
# Assay: Gene expression microarray analysis (Affymetrix PrimeView) and GSEA
# Assay type: cell-based, human
# Details: ProbeSet 11758779_at; LIST B
smiles,measurement,value
Nc1ccc(-c2cccs2)cc1NC(=O)c1ccc2c(c1)cc(C1CC1)n2CCN1CCOCC1 [ACY-1035],"RFU, TMEM50B",85.32 RFU
